Source: patent publication US8440656B2, “Methods of treating pulmonary diseases and disorders by modulating calcium/calmodulin dependent protein kinase II activity” (University of Iowa Research Foundation, priority 2009, dated 2013)
Where two headings read alike, the source gives them in different places.

Legend:
[1] = biological target: CaMKIIδ (Homo sapiens, UniProt Q13557); conditions: cited from earlier work
[2] = tested on: ovalbumin-sensitized C6B2 mice (asthma model); test: Ovalbumin-sensitized mouse asthma model, intranasal KN-93; assay type: in vivo; conditions: for airway resistance (Flexivent) on Methacholine challenge: KN93 100 mM intranasal during ovalbumin inhalations, at 50 and 100 μg/ml Methacholine, p<0.05, vs untreated; for Bronchoalveolar lavage eosinophils: KN93 intranasal, compared with untreated control mice
Procedure: (§1) FIG. 4. Effects of inhaled KN-93 on asthma. (A) C6B2 mice were sensitized by two i.p. injections of ovalbumin, followed by three 30 min inhalations of ovalbumin in the presence or absence of the CaMKII inhibitor KN93 (100 μM) intranasal. Airway reactivity was determined by Methacholine challenge using the Flexivent-measured airway resistance as the readout. (B) Bronchoalveolar lavage eosinophils in mice treated with KN 93 compared with untreated control mice.
In order to test the concept that CaMKII inhibition can reduce asthma symptoms, a validated asthma model was utilized. This model induces airway inflammation and hyper-reactivity by intra-peritoneal sensitization and inhalational challenge with the experimental allergen, ovalbumin. The “asthmatic” mice are then characterized by a graded inhalational challenge protocol using aerosolized methacholine. (See Jain et al., 2003). This approach is similar to that used in humans with clinical asthma.
as §1, with “C6B2” for “FIG. 4. Effects of inhaled KN-93 on asthma. (A) C6B2”, “mM)” for “μM)”, “[…] (* p<0.05, n=4 per group) (FIG. 4A).” for “(B)”, “eosinophils (a measure of allergic airway inflammation) were reduced” for “eosinophils”, “mice (FIG. 4B).” for “mice.”

Sequence of CaMKIIδ (Q13557 whole entry): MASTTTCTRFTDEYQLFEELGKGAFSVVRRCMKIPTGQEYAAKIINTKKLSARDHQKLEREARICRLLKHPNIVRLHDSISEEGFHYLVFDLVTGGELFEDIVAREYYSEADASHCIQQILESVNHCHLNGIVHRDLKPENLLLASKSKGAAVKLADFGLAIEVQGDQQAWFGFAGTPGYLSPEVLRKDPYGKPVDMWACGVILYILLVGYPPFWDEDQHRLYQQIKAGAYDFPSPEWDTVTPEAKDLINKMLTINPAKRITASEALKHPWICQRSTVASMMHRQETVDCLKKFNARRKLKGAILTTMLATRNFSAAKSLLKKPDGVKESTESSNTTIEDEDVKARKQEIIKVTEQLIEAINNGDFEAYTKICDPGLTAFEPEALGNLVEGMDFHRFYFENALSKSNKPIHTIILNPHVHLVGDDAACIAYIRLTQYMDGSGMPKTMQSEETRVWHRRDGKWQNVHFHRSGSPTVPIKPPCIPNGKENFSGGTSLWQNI

Q: For NCCCn1cc(C2=C(c3ccc4ccccc4n3)C(=O)NC2=O)c2ccccc21 [Compound 14f], which IC50 [1] is on record?
A: Its IC50 is greater than 20 µM.

Q: With CC(C)(C)OC(=O)NCCCn1cc(C2=C(c3cccs3)C(=O)NC2=O)c2ccccc21 [Compound 13l] as the compound, how does the IC50 [1] read?
A: The IC50 was greater than 20 µM.

Q: For COc1ccc(S(=O)(=O)N(CCO)c2ccccc2CN(C)C/C=C/c2ccc(Cl)cc2)cc1 [KN-93], which “airway resistance (Flexivent) on Methacholine challenge” value [2] is on record?
A: Its value is “reduced airway resistance measurements”.

Q: What about the “airway resistance (Flexivent) on Methacholine challenge” value ([2]; listed as KN93) of the same compound?
A: The value was “significant reduction”.

Q: What about the Bronchoalveolar lavage eosinophils [2] of the same compound?
A: The Bronchoalveolar lavage eosinophils was “reduced eosinophils”.

Q: And the Bronchoalveolar lavage eosinophils ([2]; listed as KN 93)?
A: The Bronchoalveolar lavage eosinophils was “reduced”.

Q: Which IC50 [1] does the source give for CN1C(=O)C(c2c[nH]c3ccc(Br)cc23)=C(c2cn(CCCN)c3ccccc23)C1=O [Compound 16t] here?
A: The IC50 was greater than 20 µM.

Q: For CC(C)(C)OC(=O)NCCCn1cc(C2=C(c3ccccc3)C(=O)NC2=O)c2ccccc21 [Compound 13g], which IC50 [1] is on record?
A: The IC50 was greater than 20 µM.

Q: Which IC50 [1] does the source give for CC(C)(C)OC(=O)NCCCn1cc(C2=C(c3csc4ccccc34)C(=O)NC2=O)c2ccccc21 [Compound 13b] here?
A: Its IC50 is greater than 20 µM.

Q: Which IC50 ([1]; old, read-out: IC50 (μM) old) does the source give for NCCCn1cc(C2=C(c3csc4ccccc34)C(=O)NC2=O)c2ccccc21 [Compound 2] here?
A: The IC50 was less than 0.039 µM.
